Source: the NIST ThermoML archive (doi:10.1016/j.fluid.2015.12.055)
Numbers after ± are expanded uncertainties.

Conditions: Liquid, Vibrating tube method

| Compound | mass density (273.15 K, 101.33 kPa) | mass density (283.15 K, 101.33 kPa) | mass density (293.15 K, 101.33 kPa) | mass density (298.15 K, 101.33 kPa) | mass density (303.15 K, 101.33 kPa) | mass density (313.15 K, 101.33 kPa) | mass density (313.15 K, 1999 kPa) | mass density (313.15 K, 5000 kPa) | mass density (323.15 K, 101.33 kPa) | mass density (333.15 K, 101.33 kPa) | mass density (343.15 K, 101.33 kPa) | mass density (353.15 K, 101.33 kPa) | mass density (363.15 K, 101.33 kPa) | other results |
| --- | --- | --- | --- | --- | --- | --- | --- | --- | --- | --- | --- | --- | --- | --- |
| CCn1cc[n+](C)c1.O=S(=O)([N-]S(=O)(=O)C(F)(F)C(F)(F)F)C(F)(F)C(F)(F)F | 1621.64 ± 5.1 kg/m3 | 1610.4 ± 5.1 kg/m3 | 1599.21 ± 5 kg/m3 | 1593.65 ± 5 kg/m3 | 1588.12 ± 4.9 kg/m3 | 1577.13 ± 4.9 kg/m3 | 1579.57 ± 4.9 kg/m3 | 1582.86 ± 5 kg/m3 | 1566.23 ± 4.8 kg/m3 | 1555.4 ± 4.7 kg/m3 | 1544.63 ± 4.7 kg/m3 | 1533.92 ± 4.6 kg/m3 | 1523.27 ± 4.5 kg/m3 | mass density (313.15 K, 497 kPa): 1577.9 ± 4.9 kg/m3; mass density (313.15 K, 1001 kPa): 1578.46 ± 4.9 kg/m3; mass density (313.15 K, 3003 kPa): 1580.67 ± 5 kg/m3; mass density (313.15 K, 4007 kPa): 1581.77 ± 5 kg/m3; mass density (313.15 K, 6004 kPa): 1583.94 ± 5 kg/m3 |
| CCn1cc[n+](C)c1.F[B-](F)(F)F [1-ethyl-3-methylimidazolium tetrafluoroborate] |  |  | 1283.53 ± 1.5 kg/m3 | 1279.7 ± 1.5 kg/m3 | 1275.89 ± 1.5 kg/m3 | 1268.33 ± 1.4 kg/m3 |  |  | 1260.85 ± 1.4 kg/m3 | 1253.45 ± 1.4 kg/m3 | 1246.11 ± 1.4 kg/m3 | 1238.83 ± 1.4 kg/m3 | 1231.6 ± 1.3 kg/m3 | mass density (313.15 K, 503 kPa): 1268.82 ± 1.4 kg/m3; mass density (313.15 K, 999 kPa): 1269.09 ± 1.4 kg/m3; mass density (313.15 K, 2001 kPa): 1269.74 ± 1.5 kg/m3; mass density (313.15 K, 2998 kPa): 1270.26 ± 1.5 kg/m3; mass density (313.15 K, 4000 kPa): 1270.93 ± 1.5 kg/m3; mass density (313.15 K, 5002 kPa): 1271.59 ± 1.5 kg/m3; mass density (313.15 K, 6000 kPa): 1272.21 ± 1.5 kg/m3 |
| CCn1cc[n+](C)c1.O=S(=O)([N-]S(=O)(=O)C(F)(F)F)C(F)(F)F | 1544.43 ± 4.7 kg/m3 | 1534.1 ± 4.6 kg/m3 | 1523.89 ± 4.5 kg/m3 | 1518.83 ± 4.5 kg/m3 | 1513.78 ± 4.5 kg/m3 | 1503.75 ± 4.4 kg/m3 | 1505.7 ± 4.5 kg/m3 |  | 1493.8 ± 4.4 kg/m3 | 1483.92 ± 4.3 kg/m3 | 1474.1 ± 4.2 kg/m3 | 1464.36 ± 4.2 kg/m3 | 1454.67 ± 4.1 kg/m3 | mass density (313.15 K, 508 kPa): 1504.27 ± 4.4 kg/m3; mass density (313.15 K, 1002 kPa): 1504.75 ± 4.4 kg/m3; mass density (313.15 K, 3001 kPa): 1506.65 ± 4.5 kg/m3; mass density (313.15 K, 3997 kPa): 1507.6 ± 4.5 kg/m3; mass density (313.15 K, 5001 kPa): 1508.55 ± 4.5 kg/m3; mass density (313.15 K, 6005 kPa): 1509.49 ± 4.6 kg/m3 |
| CCn1cc[n+](C)c1.O=S(=O)([O-])C(F)(F)C(F)(F)C(F)(F)C(F)(F)F |  |  |  | 1546.54 ± 4.7 kg/m3 | 1541.24 ± 4.6 kg/m3 | 1530.71 ± 4.6 kg/m3 |  | 1534.99 ± 4.7 kg/m3 | 1520.31 ± 4.5 kg/m3 | 1510.01 ± 4.5 kg/m3 | 1499.78 ± 4.4 kg/m3 | 1489.64 ± 4.3 kg/m3 | 1479.58 ± 4.3 kg/m3 | mass density (313.15 K, 510 kPa): 1530.15 ± 4.6 kg/m3; mass density (313.15 K, 1007 kPa): 1530.64 ± 4.6 kg/m3; mass density (313.15 K, 2007 kPa): 1531.73 ± 4.6 kg/m3; mass density (313.15 K, 3005 kPa): 1532.82 ± 4.7 kg/m3; mass density (313.15 K, 4004 kPa): 1533.91 ± 4.7 kg/m3; mass density (313.15 K, 5999 kPa): 1536.06 ± 4.7 kg/m3 |
